Results taken from ChEMBL document CHEMBL6120994, “Unravelling the potential of natural chelating agents in the control of Staphylococcus aureus and Pseudomonas aeruginosa biofilms” (Eur J Med Chem, 2025).
Converted amounts (≈) assume the structure as drawn.

How the values were obtained:
[1] = Metal chelating activity assessed as compound-Fe(III) complex formation by measuring RhB degradation in MgO2/Fe(III) system measured within 30 mins by UV-Visible spectrophotometry
[2] = system: Pseudomonas aeruginosa; assay: Bactericidal activity against Pseudomonas aeruginosa ATCC 10145 assessed as bacterial killing incubated in MHB for 24 hrs and measured following culturing on agar plate for 24 hrs; assay type: functional; settings: time 48 hrs
[3] = system: Pseudomonas aeruginosa; assay: Antibacterial activity against Pseudomonas aeruginosa ATCC 10145 assessed as inhibition of bacterial growth incubated for 24 hrs by broth microdilution method; assay type: functional
[4] = system: Staphylococcus aureus; assay: Bactericidal activity against Staphylococcus aureus CECT 976 assessed as bacterial killing incubated in MHB for 24 hrs and measured following culturing on agar plate for 24 hrs; assay type: functional; settings: time 48 hrs
[5] = system: Staphylococcus aureus; assay: Antibacterial activity against Staphylococcus aureus CECT 976 assessed as inhibition of bacterial growth incubated for 24 hrs by broth microdilution method; assay type: functional

SMILES | Activity [1] [%] | MBC [2] [µg/mL] | MIC [3] [µg/mL] | MBC [4] [µg/mL] | MIC [5] [µg/mL]
O=C(O)C(=O)O | 48.9 | – | – | – | –
O=C(O)CC(O)(CC(=O)O)C(=O)O | 42.3 | – | – | – | –
O=C(O)CN(CCN(CC(=O)O)CC(=O)O)CC(=O)O | 25.8 | – | – | – | –
O=C(O)[C@@H](O)[C@H](O)C(=O)O | 98.5 | – | – | – | –
O=C(O)c1cn(C2CC2)c2cc(N3CCNCC3)c(F)cc2c1=O [CIPROFLOXACIN] | – | 32 (≈ 96.6 µM) | 32 (≈ 96.6 µM) | 8 (≈ 24.1 µM) | –
NC[C@H]1O[C@H](O[C@H]2[C@H](O)[C@@H](O[C@H]3O[C@H](CO)[C@@H](O)[C@H](N)[C@H]3O)[C@H](N)C[C@@H]2N)[C@H](N)C[C@@H]1O [TOBRAMYCIN] | – | 16 (≈ 34.2 µM) | 8 (≈ 17.1 µM) | 4 (≈ 8.56 µM) | 4 (≈ 8.56 µM)
